The record followed here is patent US20210122746A1, “FEBRIFUGINE DERIVATIVES” (BRISTOL-MYERS SQUIBB COMPANY, priority 2017, published 2021).

The structures appear in SMILES notation. Structures can show the parent of a compound that is named as a salt.

Data set [1] concerns the target T1, human ProRS (prolyl tRNA synthetase moiety of glutamyl prolyl tRNA synthetase) (Homo sapiens, UniProt P07814).
T1 construct: The prolyl tRNA synthetase moiety (ProRS) in the cDNA of glutamyl prolyl tRNA synthetase was subcloned; 6xHis (N, cleaved yes); made in house; host or cells: E. coli BL21 (DE3)
T1 sequence (P07814 1007-1512 limits assumed): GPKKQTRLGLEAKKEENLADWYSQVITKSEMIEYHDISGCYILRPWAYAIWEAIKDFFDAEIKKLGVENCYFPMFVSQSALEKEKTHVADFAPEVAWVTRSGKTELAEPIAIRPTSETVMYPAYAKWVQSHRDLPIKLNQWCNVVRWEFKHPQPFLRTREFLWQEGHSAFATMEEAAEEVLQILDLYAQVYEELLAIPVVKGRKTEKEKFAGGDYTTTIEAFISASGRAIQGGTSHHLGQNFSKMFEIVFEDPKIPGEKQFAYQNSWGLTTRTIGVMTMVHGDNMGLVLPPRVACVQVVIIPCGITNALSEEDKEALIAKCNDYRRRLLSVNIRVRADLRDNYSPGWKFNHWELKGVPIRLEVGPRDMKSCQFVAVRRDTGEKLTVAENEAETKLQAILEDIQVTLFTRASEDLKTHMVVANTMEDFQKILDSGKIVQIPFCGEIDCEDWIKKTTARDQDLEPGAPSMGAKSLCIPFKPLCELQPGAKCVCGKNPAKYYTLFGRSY
As to the kind of experiment: Assay for inhibitors of prolyl tRNA synthetase activity (ProRS assay, labeled proline incorporation). In kind it is biochemical. Conditions: ProRS 20 nM, compounds 10 μM to 0.5 nM, 10 min at 37° C.; read-out: EPR IC50. An excerpt:
In order to establish the activities of the compounds highlighted above, we determined extent of inhibition of prolyl tRNA synthetase activity in dose response curves to obtain IC50 values.
The prolyl tRNA synthetase moiety (ProRS) in the cDNA of glutamyl prolyl tRNA synthetase was subcloned, tagged with a single biotin, purified and used in the assay. Briefly, human ProRS with a 6× N-terminal His tag in pET28N with TVMV BioP was transformed in E. coli BL21 (DE3) cells, selected, overexpressed and purified using a Ni Seph 6 FF XK 16/20 column in the first stage. Ni-NTA eluates were pooled and treated with TVMV protease, and biotinylated using d-Biotin, MgCl2, ATP and the BirA enzyme. This was rerun through a Ni column as before. The eluates were further enriched and purified using membrane ultrafiltration and a SuperDex 200 XK 16/60 column, and peak fractions were confirmed by SDS-PAGE prior to protein amount determination, aliquoting and storage at −80° C.
ProRS assay was performed in 96 well plates in a final reaction volume of 20 μl, using staggered additions of Tris-Cl (pH 7.5, 60 mM), dithiothreitol (2 mM), ATP (5 mM, pH 7.0), MgCl2 6 mM), ProRS (20 nM, with pre-determined active fraction range) and bovine tRNA (20 μg). Controls and compounds, at various concentrations (10 μM to 0.5 nM), were incubated on ice with enzyme mix for 15 min followed by addition of proline (non-labeled and labeled, 3.96 and 1.04 μM (1 μCi) respectively) to initiate the reaction. Reaction was carried out for 10 min at 37° C. and terminated by addition of TCA (10%, 100 μl). Reaction mix was collected on a Whatman GF/B filter using a vacuum filtration manifold. This filter was washed 3 times with 5% TCA followed by 2 washes with ethanol, air dried, and read using a liquid scintillation counter (TopCount NXT) using MicroScint O. IC50 values were calculated and analyzed using ToolSet (4-parameter plot) and depicted herein.

The test system of the next data set is Rat hepatocytes. In words: GSH trapping assay. It is filed as in vitro ADME. To be noted: 30 μM, 24 hr incubation, LC-MS detection of GSH adducts. On the procedure:
Rat hepatocytes were isolated from male Sprague-Dawley rats (Vivo Biotech Ltd, HYD, India), weighing 230 to 280 g by the two step collagenase perfusion method (seglen, 1976; Berry M N and Friend D S.1969). Rat hepatocytes were cultured in Dulbecco's Modified Eagle's Medium (DMEM, Gibco®, USA) supplemented with 10^−6M dexamethasone (Gibco®), 5% fetal bovine serum (Gibco®) and cocktail-A mix (CM3000, Gibco®) containing HEPES buffer (PH 7.4), GlutaMAX™, human recombinant insulin, penicillin and streptomycin. Initial cell viability assessed by Trypanblue stain 0.4% (Sigma, UK) and viability more than 80% were considered for culturing. Hepatocytes were seeded in 96 well type-I collagen coated plates (Gibco®) at 4×10^4 cells/well in 100 μL of the culture medium and incubated at 37° C. in 5% CO2 and 95% relative humidity (RH) for 4 hr of cell attachment.
After 4hr incubation, rat hepatocytes were washed twice with pre-warmed (37° C.) DMEM incubation medium supplemented with 10^−7M dexamethasone and cell maintenance cocktail-B (CM4000, Gibco®) solution to remove unattached cells. Post washing hepatocytes were treated with test and reference compounds in incubation medium at single concentration (30 μM) in duplicate and incubate further for 24 hr at 37° C. with 5% CO2 and 95% RH. The final concentration of DMSO in medium was 0.5%.
Post 24 hr incubation, hepatocyte samples were quenched with equal volumes of acetonitrile containing 0.1% formic acid followed by vortex mix, sonicate and centrifuge at 12000 rpm at room temperature for 5 min. Supernatant samples were analyzed for GSH adducts on a C18 reverse-phase column (Xbridge™ Shield, C18, 4.6×150 mm, 3.5 μm) with solvent A (10 mM ammonium formate and 0.1% formic acid/water) and solvent B (0.1% formic acid/acetonitrile).
The column was eluted with 5% B for 5 min and then with a linear gradient to 20% B over 10 min and it was maintained upto 15 min, then it was increased linearly to 40% B upto 27 min and then increase to 90% B upto 29 min, and then equilibrate back the column to 5% B upto 33 min at a flow rate of 0.6 ml/min. The column effluent was directed into the ESI source of a LTQ Velos Orbitrap mass spectrometer (Thermo Fisher Scientific, San Jose, Calif.). The ESI conditions were as follows: sheath gas flow rate, 40 arbitrary units; auxiliary gas, 30 arbitrary units; spray voltage, 4.5 kV; capillary temperature, 230° C.; capillary voltage, 30 V; and tube lens offset, 25 V. Data were acquired in positive ion mode using Xcalibur software (Thermo Fisher Scientific) with one full scan followed by two data-dependent scans of the most intense and the second most intense ions. During the data interpretation the characteristic fragments of neutral loss of glycine (75.0320 Da), pyroglutamic acid (129.0426 Da) and loss of neutral moiety GSH (307.0838 Da) and/or a specific fragment of (GSH+H)^+ (m/z 308.0911) were monitored. Finally, the fragments ions with m/z e.g. 179.0485, 177.0328 and 162.0219 Da, which were derived from the glutathione moiety were used to report GSH positive results.

With `Cc1cc(C)c2ncn(CC(=O)C[C@H]3NCCC[C@@H]3O)c(=O)c2n1` [Example 1, 3-{3-[(2R,3S)-3-Hydroxypiperidin-2-yl]-2-oxopropyl}-6,8-dimethylpyrido[3,2-d]pyrimidin-4(3H)-one dihydrochloride], the IC50 in data set [1] is 0.028 µM. Also, the GSH adduct formation result in the data set with Rat hepatocytes is listed as “Negative”.

`O=C(C[C@H]1NCCC[C@@H]1O)Cn1cnc2cccnc2c1=O` [Example 2, 3-{3-[(2R,3S)-3-Hydroxypiperidin-2-yl]-2-oxopropyl}pyrido[3,2-d]pyrimidin-4(3H)-one dihydrochloride]: in data set [1], the IC50 stood at 0.015 µM. The GSH adduct formation result in the data set with Rat hepatocytes is on record as “Negative”.

For the compound `Cc1cc(C)c2ncn(CC(=O)C[C@@H]3CCCCN3)c(=O)c2n1.Cl.Cl` [Example 10, (S)-6,8-dimethyl-3-(2-oxo-3-(piperidin-2-yl)propyl)pyrido[3,2-d]pyrimidin-4(3H)-one dihydrochloride], in data set [1], the IC50 is 0.773 µM. In addition, the GSH adduct formation result with Rat hepatocytes is given as “Negative”.

As to `O=c1c2nc(-c3cccc(C(F)(F)F)c3)ccc2ncn1C[C@@H](O)C[C@H]1NCCC[C@@H]1O` [Example 23, 3-{(S)-2-Hydroxy-3-[(2R,3S)-3-hydroxypiperidin-2-yl]propyl}-6-[3-(trifluoromethyl)phenyl]pyrido[3,2-d]pyrimidin-4(3H)-one dihydrochloride], the IC50 in data set [1] was 0.028 µM. The GSH adduct formation entry in the data set with Rat hepatocytes is recorded as “Negative”.

Consider `O=c1c2nc(-c3cccnc3)ccc2ncn1C[C@@H](O)C[C@H]1NCCC[C@@H]1O` [Example 29, 3-{(S)-2-hydroxy-3-[(2R,3S)-3-hydroxypiperidin-2-yl]propyl}-6-(pyridin-3-yl)pyrido[3,2-d]pyrimidin-4(3H)-one 2,2,2-trifluoroacetate], for which the IC50 in data set [1] is 0.103 µM.

Take `Cc1cc(C2CC2)nc2c(=O)n(C[C@@H](O)C[C@H]3NCCC[C@@H]3O)cnc12` [Example 30, 6-cyclopropyl-3-{(S)-2-hydroxy-3-[(2R,3S)-3-hydroxypiperidin-2-yl]propyl}-8-methylpyrido[3,2-d]pyrimidin-4(3H)-one dihydrochloride]: in data set [1], the IC50 was 0.425 µM.

Turning to `Cc1cc(C(F)(F)F)nc2c(=O)n(C[C@@H](O)C[C@H]3NCCC[C@@H]3O)cnc12` [Example 31, 3-{(S)-2-hydroxy-3-[(2R,3S)-3-hydroxypiperidin-2-yl]propyl}-8-methyl-6-(trifluoromethyl)pyrido[3,2-d]pyrimidin-4(3H)-one bis(2,2,2-trifluoroacetic acid)], the IC50 in data set [1] was found to be 0.416 µM. In addition, in the data set on Rat hepatocytes, the GSH adduct formation entry is “Negative”.

Take `Cc1cc(-c2cccc(F)c2)nc2c(=O)n(C[C@@H](O)C[C@H]3NCCC[C@@H]3O)cnc12` [Example 32, 6-{(3-fluorophenyl)-3-[(S)-2-hydroxy-3-(2R,3S)-3-hydroxypiperidin-2-yl-propyl)-8-methylpyrido[3,2-d]}pyrimidin-4(3H)-one dihydrochloride]: the IC50 in data set [1] came out at 0.079 µM.

For `Cc1cc(-c2cccc(Cl)c2)nc2c(=O)n(C[C@@H](O)C[C@H]3NCCC[C@@H]3O)cnc12` [Example 33, 6-(3-chlorophenyl)-3-{(S)-2-hydroxy-3-[(2R,3S)-3-hydroxypiperidin-2-yl]propyl}-8-methylpyrido[3,2-d]pyrimidin-4(3H)-one dihydrochloride], the IC50 in data set [1] amounted to 0.023 µM.

Regarding `Cc1cc(-c2cccnc2)nc2c(=O)n(C[C@@H](O)C[C@H]3NCCC[C@@H]3O)cnc12` [Example 34, 3-{(S)-2-hydroxy-3-[(2R,3S)-3-hydroxypiperidin-2-yl]propyl}-8-methyl-6-(pyridin-3-yl)pyrido[3,2-d]pyrimidin-4(3H)-one trihydrochloride], the IC50 in data set [1] is 0.29 µM.

For the compound `Cc1cc(C(C)C)cc2c(=O)n(C[C@@H](O)C[C@@H]3CCCCN3)cnc12` [Example 35, 3-{(S)-2-hydroxy-3-[(S)-piperidin-2-yl]-propyl}-6-isopropyl-8-methylquinazolin-4(3H)-one hydrochloride], the IC50 in data set [1] came out at 1.39 µM.

As to `Cc1cc(C)c2ncn(C[C@@H](O)C[C@@H]3CCCCN3)c(=O)c2n1` [Example 36, 3-{(S)-2-hydroxy-3-[(S)-piperidin-2-yl]propyl}-6,8-dimethylpyrido[3,2-d]pyrimidin-4(3H)-one dihydrochloride], the IC50 in data set [1] came out at 2.18 µM.

For the compound `Cc1cc(C)c2ncn(C[C@@H](O)C[C@H]3NCC[C@@H]3O)c(=O)c2n1` [Example 37, 3-{(S)-2-hydroxy-3-[(2R,3S)-3-hydroxypyrrolidin-2-yl]propyl}-6,8-dimethylpyrido(3,2-d)pyrimidin-4(3H)-one bis (2,2,2-trifluoroacetic acid)], the IC50 in data set [1] was greater than 10 µM.

Regarding `O=c1c2cnccc2ncn1C[C@@H](O)C[C@H]1NCC[C@@H]1O` [Example 38, 3-{(S)-2-hydroxy-3-[(2R,3S)-3-hydroxypyrrolidin-2-yl]-propyl}pyrido[4,3-d]pyrimidin-4(3H)-one bis (2,2,2-trifluoroacetic acid)], the IC50 in data set [1] was 2.3 µM.

Consider `Cc1cc(-c2cccc(F)c2)cn2c(=O)c(NC(=O)C[C@H]3NCCC[C@@H]3O)cnc12` [Example 40, N-(7-(3-fluorophenyl)-9-methyl-4-oxo-4H-pyrido[1,2-a]pyrimidin-3-yl)-2-((2R,3S)-3-hydroxypiperidin-2-yl)acetamide 2,2,2-trifluoroacetic acid], for which the IC50 in data set [1] was found to be 2.73 µM.

In the case of `Cc1cc(C(F)(F)F)cn2c(=O)c(NC(=O)C[C@H]3NCCC[C@@H]3O)cnc12` [Example 41, 2-((2R,3S)-3-hydroxypiperidin-2-yl)-N-(9-methyl-4-oxo-7-(trifluoromethyl)-4H-pyrido[1,2-a]pyrimidin-3-yl)acetamide 2,2,2-trifluoroacetic acid], the IC50 in data set [1] is greater than 8 µM.
